Data taken from PubChem BioAssay (NCI).
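1) Cells in 96-well plates. 2) Compound, 48 h, 5 concentrations. 3) Linear interpolation between surrounding doses. 4) Unreached endpoint = highest concentration. TGI: total growth inhibition.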

These molecules were tested on HOP-92 NSCLC (assay: NCI anticancer screen, dose series, 48 h).
Molecule `O=C1c2cc(-c3ccccc3)cnc2S(=O)(=O)N1c1ccc(Br)cc1` has a TGI of 72.1 µM.
With `O=C(NCP(=O)(Oc1ccccc1)Oc1ccccc1)OCc1ccccc1` the TGI was > 100 µM.
For `Cc1c(O)nc(-n2[nH]c3c(c2=O)CCCC3)[nH]c1=O`, the TGI was > 100 µM.
`C=CCc1cc(-c2nc(=S)[nH][nH]2)ccc1N=NNc1ccc(C(=O)O)cc1` was tested, and the TGI was > 100 µM.
With `O=C(O)CN1CCNCCN(CC(=O)O)CCN(CC(=O)O)CCNCC1` the TGI was > 100 µM.
`COC(C)(C)C1(O)CC[C@@H](C)CC1=O` (some centres undefined) was tested, and the TGI was > 100 µM.
With `Nc1ccc(N=Nc2c(S(=O)(=O)O)cc3ccccc3c2S(=O)(=O)O)cc1` the TGI was > 100 µM.

These molecules were tested on NCI-H226 lung (assay: NCI anticancer screen, dose series, 48 h).
With `CC1=CCC([C@@](C)(O)CCCC(C)(C)N=C=S)CC1` (some centres undefined) the TGI was 32.1 µM.
`C=C1C(=O)CC2C1CC(=O)/C(C)=C/CCC(C)(O)C2O` (centres undefined) gave a TGI of 61.6 µM.
In the case of `C[C@H](CCC(=O)O)[C@H]1CC[C@H]2[C@@H]3C(=O)C[C@@H]4C[C@H](O)CC[C@]4(C)[C@H]3C[C@H](O)[C@]12C`, the TGI is reported as > 100 µM.
For `O=C(O)c1ccccc1CC(Cc1ccc2c(c1)CCC2)C(=O)O` (centres undefined), the TGI was > 100 µM.
With `Cn1c(SCc2ccc(F)cc2)nnc1C12CC3CC(CC(C3)C1)C2` the TGI was > 100 µM.
For `COC(=O)/C=C\C(C#N)(C#N)N=Cc1ccc(C)cc1`, the TGI was 21.5 µM.
With `CC(c1ccccc1)N1CCN(C(C)c2ccccc2)CC1` (centres undefined) the TGI was > 100 µM.
With `COc1ccc(N2C(=O)CC(=O)N(NC(=O)C(C)Oc3ccccc3C)C2=S)cc1` (centres undefined) the TGI was > 100 µM.
`O=C1OC(C2Cc3ccc4ccccc4c3C2=O)c2ccccc21` (centres undefined) gave a TGI of 49.7 µM.
In the case of `C/C(=N\N=C1/C(=O)OC(c2ccccc2)=C1C(=O)c1ccccc1)c1ccc([N+](=O)[O-])cc1`, the TGI is reported as 79.4 µM.
In the case of `O=S(=O)(O)C(CO)c1ccccc1` (centres undefined) (tested in a mixture with another compound), the TGI is reported as > 100 µM.
With `O=C1c2ccccc2C(=O)N1n1c(Cc2ccc([N+](=O)[O-])cc2)n[nH]c1=O` the TGI was > 100 µM.
`Cc1nc(C)c(N2CCN([N+](=O)[O-])CC2)c(=O)[nH]1` was tested, and the TGI was > 100 µM.
For `Cc1nn(-c2ccccc2)c2c1C(c1cc3ccccc3nc1Cl)NC(=O)N2` (centres undefined), the TGI was 60.1 µM.
In the case of `COc1ccc(C2OC(c3ccncc3)=NN2C)cc1F` (centres undefined), the TGI is reported as > 100 µM.
In the case of `Cc1cc(/N=C/c2ccc(N(C)C)cc2)n(-c2ccccc2)n1`, the TGI is reported as > 100 µM.
For `O=C(/C=C/c1ccccc1)Oc1ccc(C(=O)/C=C/c2ccccc2)cc1`, the TGI was > 100 µM.
For `COC(=O)C(Cc1ccc2c(c1)CCC2)Cc1ccc2c(c1)CCC2`, the TGI was > 100 µM.
In the case of `C/C(C[n+]1ccccc1)=N\N=C(N)N`, the TGI is reported as > 100 µM.
In the case of `NCCCN1c2ccccc2Sc2ccc(Cl)cc21`, the TGI is reported as > 10 µM.
With `CCOC(=O)c1cccc(N=Nc2nc[nH]c2/C=C/C(=O)OC)c1` the TGI was > 100 µM.
With `O=C(O)CN1CCN2CCCCCN(CC1)CCN(CC(=O)O)CC2` the TGI was > 100 µM.
In the case of `Clc1ccc(-c2nnc3sc4nc5ccccc5c-4nn23)c(Cl)c1`, the TGI is reported as > 100 µM.
`C=C(C(=O)OCC)C(=O)OCC` was tested, and the TGI was > 100 µM.
Work on `N#CC(C#N)=C1SC(=Nc2ccccc2)C(=Nc2ccccc2)N1c1ccccc1` yielded a TGI of 44.7 µM.
In the case of `CSC1=N/C(=C\c2ccc(C)cc2)C(=O)N1CN1CCCCC1`, the TGI is reported as > 100 µM.
For `O=C1c2cc(-c3ccccc3)cnc2S(=O)(=O)N1c1ccc(Br)cc1`, the TGI was > 100 µM.
In the case of `O=C(NCP(=O)(Oc1ccccc1)Oc1ccccc1)OCc1ccccc1`, the TGI is reported as > 100 µM.
In the case of `Cc1c(O)nc(-n2[nH]c3c(c2=O)CCCC3)[nH]c1=O`, the TGI is reported as > 100 µM.
`C=CCc1cc(-c2nc(=S)[nH][nH]2)ccc1N=NNc1ccc(C(=O)O)cc1` was tested, and the TGI was > 100 µM.
For `O=C(O)CN1CCNCCN(CC(=O)O)CCN(CC(=O)O)CCNCC1`, the TGI was > 100 µM.
In the case of `Nc1ccc(N=Nc2c(S(=O)(=O)O)cc3ccccc3c2S(=O)(=O)O)cc1`, the TGI is reported as > 100 µM.
